Here are results for 15 compounds from PubChem BioAssay (NCI).

Test systems include A549 NSCLC; K-562 leukemia; KM12 colon; M14 melanoma; MDA-MB-231 breast; NCI-H23 lung; OVCAR-8 ovarian; SK-MEL-2 melanoma; T-47D breast; RXF 393 renal.
Holding throughout (experiment): growth of human tumour cells (NCI), 48 h

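Compound exposure: 48 hours, 5 concentrations, 96-well plates. TGI: total growth inhibition.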

As for `COC(=O)C1Cc2ccc(C)cc2C1=O` (stereo not given), the TGI with A549 NSCLC, with K-562 leukemia, with KM12 colon, in the assay on M14 melanoma, in the assay with MDA-MB-231 breast and with NCI-H23 lung was greater than 100 µM each time. Moreover, the TGI with OVCAR-8 ovarian, in the assay with SK-MEL-2 melanoma and in the assay on T-47D breast was greater than 100 µM each time.
As for `CC(=O)OC1/C(=C/c2ccc([N+](=O)[O-])cc2)C[C@H]2[C@@H]3CC=C4C[C@@H](OC(C)=O)CC[C@]4(C)[C@H]3CC[C@]12C` (stereo not given in full), the TGI in the assay with A549 NSCLC, in the assay with KM12 colon, in the assay on M14 melanoma, in the assay on MDA-MB-231 breast, in the assay with NCI-H23 lung and in the assay with OVCAR-8 ovarian was greater than 100 µM throughout. Also, the TGI was 60.4 µM with RXF 393 renal, greater than 100 µM in the assay on SK-MEL-2 melanoma and greater than 100 µM with T-47D breast.
As to `C[C@H](CCC1=NCCN1)[C@H]1CC[C@H]2[C@@H]3[C@H](O)C[C@@H]4C[C@H](O)CC[C@]4(C)[C@H]3CC[C@]12C`, the TGI in the assay with K-562 leukemia was 21.6 µM; in the assay on KM12 colon it was 27.7 µM; in the assay with M14 melanoma, 28.6 µM; in the assay with MDA-MB-231 breast, 33.5 µM; in the assay on NCI-H23 lung it was 27.3 µM; with OVCAR-8 ovarian, 29 µM. Moreover, the TGI in the assay on RXF 393 renal amounted to 31.6 µM; in the assay with SK-MEL-2 melanoma, 29.9 µM; in the assay with T-47D breast, 31.3 µM.
`COC(=O)[C@@H]1C=C[C@@H](C#N)n2c(=O)n(-c3ccccc3)c(=O)n21`: the TGI was greater than 100 µM in the assay on K-562 leukemia; 73.2 µM with KM12 colon; greater than 100 µM in the assay on M14 melanoma; 93.6 µM in the assay on MDA-MB-231 breast; greater than 100 µM in the assay on NCI-H23 lung; 57.8 µM with OVCAR-8 ovarian. The compound further displayed a TGI in the assay on T-47D breast of 94.1 µM.
As to `CCOc1ccc2ccccc2c1NC1=NCCO1`, the TGI was greater than 100 µM in the assay with A549 NSCLC; 61.3 µM in the assay with K-562 leukemia; 76.7 µM in the assay on KM12 colon; greater than 100 µM with M14 melanoma; greater than 100 µM with MDA-MB-231 breast; greater than 100 µM in the assay on NCI-H23 lung. Further, the TGI in the assay with OVCAR-8 ovarian, with RXF 393 renal and with T-47D breast was greater than 100 µM each time.
In the case of `CN1CCN(c2nc3ccccc3nc2C(=O)c2ccc(Cl)cc2)CC1`, the TGI in the assay with A549 NSCLC was greater than 100 µM; with K-562 leukemia, greater than 100 µM; with KM12 colon, greater than 100 µM; in the assay with M14 melanoma it was 62.8 µM; in the assay on NCI-H23 lung, greater than 100 µM; in the assay with OVCAR-8 ovarian, greater than 100 µM. For the same compound, the results for the TGI in the assay on RXF 393 renal, in the assay on SK-MEL-2 melanoma and with T-47D breast were 77.3 µM, greater than 100 µM and greater than 100 µM, respectively.
With `CC(=O)N1c2ccccc2C(C)(C)OC1C(Cl)(Cl)Cl` (stereo not given), the TGI in the assay on A549 NSCLC, with KM12 colon, with M14 melanoma, in the assay with MDA-MB-231 breast, with NCI-H23 lung and with OVCAR-8 ovarian was greater than 100 µM throughout. Besides, the TGI with SK-MEL-2 melanoma and in the assay on T-47D breast was greater than 100 µM in each case.
As for `Cc1nc2c(o1)C(=O)c1ccccc1C2=NC1CCCCC1N` (stereo not given), the TGI is 2.91 µM in the assay on A549 NSCLC; greater than 100 µM in the assay with K-562 leukemia; 3.18 µM in the assay on KM12 colon; 1.53 µM in the assay on M14 melanoma; 2.75 µM in the assay with MDA-MB-231 breast; 0.276 µM in the assay on NCI-H23 lung. The TGI in the assay on OVCAR-8 ovarian is 1.21 µM; in the assay on SK-MEL-2 melanoma, 2.53 µM; in the assay with T-47D breast, 1.86 µM.
Turning to `CSc1c(C(=O)Nc2ccc(C)cc2)c(N)nn1-c1ccccc1`, the TGI in the assay on A549 NSCLC was greater than 100 µM; in the assay on K-562 leukemia, greater than 100 µM; with M14 melanoma it was greater than 100 µM; with MDA-MB-231 breast it was greater than 100 µM; with NCI-H23 lung it was greater than 100 µM; in the assay on RXF 393 renal it was 75.3 µM. For the same compound, the TGI in the assay with SK-MEL-2 melanoma and with T-47D breast was greater than 100 µM in each case.
Consider `CC(=O)OCCC1c2ccccc2-n2nc(-c3ccccc3)c(O)c21` (stereo not given), for which the TGI with A549 NSCLC was found to be 37.3 µM; with K-562 leukemia, 37.7 µM; in the assay with KM12 colon it was 38.5 µM; in the assay on M14 melanoma it was 28.6 µM; in the assay on MDA-MB-231 breast, 43.3 µM; in the assay with NCI-H23 lung it was 34.5 µM. The TGI in the assay on OVCAR-8 ovarian came to 55.9 µM; with RXF 393 renal, 26 µM; in the assay with SK-MEL-2 melanoma, 96.6 µM.
On to `COc1ncnc2c1cnn2Cc1cn(COCC(O)CO)nn1` (stereo not given), for which the TGI in the assay with A549 NSCLC, in the assay with K-562 leukemia, with KM12 colon, with M14 melanoma, with MDA-MB-231 breast and with NCI-H23 lung was greater than 100 µM in each case. In addition, the TGI in the assay with OVCAR-8 ovarian, with SK-MEL-2 melanoma and in the assay on T-47D breast was greater than 100 µM in each case.
Turning to `COc1cc2c(cc1OC)C1Cc3ccccc3CCN1CC2` (stereo not given), the TGI with A549 NSCLC, with K-562 leukemia, in the assay with KM12 colon, with M14 melanoma, with MDA-MB-231 breast and in the assay on NCI-H23 lung was greater than 100 µM in each case. For the same compound, the TGI in the assay with OVCAR-8 ovarian, in the assay with SK-MEL-2 melanoma and with T-47D breast was greater than 100 µM each time.
As to `COC(=O)c1ccc2c(c1)CC1(C2)Cc2cc3c(c(C(=O)OC)c2C1)CCCC3` (stereo not given), the TGI in the assay on A549 NSCLC, with K-562 leukemia, in the assay on KM12 colon, in the assay on MDA-MB-231 breast, in the assay on NCI-H23 lung and in the assay on OVCAR-8 ovarian was greater than 100 µM each time. Moreover, the TGI in the assay with RXF 393 renal and in the assay on T-47D breast was greater than 100 µM throughout.
Consider `ClC(Cl)(Cl)C1CCOC1n1nc2ccccc2n1` (stereo not given), for which the TGI with A549 NSCLC, with K-562 leukemia, in the assay on M14 melanoma, in the assay with MDA-MB-231 breast, with NCI-H23 lung and with OVCAR-8 ovarian was greater than 100 µM each time. The TGI with RXF 393 renal, in the assay with SK-MEL-2 melanoma and in the assay with T-47D breast was greater than 100 µM each time.
Consider `O=C(O)CCC(NC(=O)c1ccc(Nc2nc3ccccc3nc2C(=O)O)cc1)C(=O)O` (stereo not given), for which the TGI with A549 NSCLC, with K-562 leukemia, with KM12 colon, in the assay with M14 melanoma, in the assay with MDA-MB-231 breast and with NCI-H23 lung was greater than 100 µM in each case. The TGI in the assay with OVCAR-8 ovarian, in the assay on SK-MEL-2 melanoma and with T-47D breast was greater than 100 µM throughout.
